# Counter-ions that a name gives are not always drawn.
# Assay: Solubility of salts in water, pH of the saturated solution and identity of the precipitate
# Type: physicochemical
# Details: for Precipitate: precipitate isolated after the solubility determination compared with the compound dissolved; for Solubility in words: summary of table 3; for Formation of hydrates: when precipitated from water; for Resulting pH: pH in the saturated solution of the salt
SMILES,Precipitate,other results
Cc1ccc(Sc2ccccc2C2CCNCC2)cc1 (racemic),=start (after,Solubility in words: exceptionally high solubility
"Cc1ccc(Sc2ccccc2C2CCNCC2)cc1 [Adipicacid, 1,6-hexanedioic acid 2:1]",=start,
Cc1ccc(Sc2ccccc2C2CCNCC2)cc1 [Citric acid 2:1],=Start,
"Cc1ccc(Sc2ccccc2C2CCNCC2)cc1 [D-tartaric acid, D-2,3-dihydroxy butanedioic acid 1:1]",Hydrate,Formation of hydrates: do
Cc1ccc(Sc2ccccc2C2CCNCC2)cc1 [Fumaric acid 1:1],=start,
Cc1ccc(Sc2ccccc2C2CCNCC2)cc1 [Glutamic acid 1:1],,Solubility in words: exceptionally high solubility
"Cc1ccc(Sc2ccccc2C2CCNCC2)cc1 [HBr, 4-[2-(4-methylphenylsulfanyl)phenyl]piperidine hydrobromide]",,"Resulting pH (hydrobromide): 7.0; Precipitate (hydrobromide): =Start; Formation of hydrates (listed as HBr addition salt, hydrobromide): does not form hydrates"
Cc1ccc(Sc2ccccc2C2CCNCC2)cc1 [Phosphoric acid 1:1],,Resulting pH: 2.0

# More lines, main results first:
Precipitate,SMILES,other results
=start,"Cc1ccc(Sc2ccccc2C2CCNCC2)cc1 [Glutaric acid, 1,5-pentanedioic acid 1:1]",Solubility in words: exceptionally high solubility
=Start,"Cc1ccc(Sc2ccccc2C2CCNCC2)cc1 [HCl, 4-[2-(4-methylphenyl-sulfanyl)phenyl]piperidine hydrochloride addition salt]",
=Start,Cc1ccc(Sc2ccccc2C2CCNCC2)cc1 [Oxalic acid 1:1],
=Start,"Cc1ccc(Sc2ccccc2C2CCNCC2)cc1 [Sebacoinic acid, 1,8-octanedioic acid 2:1]",
